# Source: US8017612B2, “Piperazine compound and use thereof as a HCV polymerase inhibitor” (priority 2006, dated 2011)
# How the values were obtained:
# [1] = molecular target: T1, HCV polymerase (NS5B) type 1a (Hepatitis C virus genotype 1a, UniProt P26664); assay: Assay of enzyme (HCV polymerase) inhibitory activity, type 1a enzyme; assay type: biochemical, HCV type 1a (cloned from the blood of patients); conditions: HCV polymerase inhibitory activity IC50, 1a, type 1a enzyme
# T1 construct: made in house; host or cells: Escherichia coli (by the 'similar method' of the 1b enzyme)
# How it was run: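 His-tagged NS5B, C-terminal 47 residues deleted, type 1a at 1.5 μg/ml, with 5 μg/ml HCV 3′UTR substrate RNA, 50 μM ATP/GTP/CTP, 2 μM UTP plus [3H]UTP, pH 7.5 Tris, 5 mM MgCl2; 60 min at 25° C. TCA-precipitated RNA counted by scintillation; IC50 from radioactivity with vs. without compound.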
# [2] = molecular target: T2, HCV polymerase (NS5B) type 1b (Hepatitis C virus genotype 1b, UniProt P26663); assay: Assay of enzyme (HCV polymerase) inhibitory activity, type 1b enzyme; assay type: biochemical, HCV BK strain (type 1b); conditions: HCV polymerase inhibitory activity IC50, 1b, type 1b enzyme
# T2 construct: a region encoding NS5B (J Virol 1991 March, 65(3), 1105-13, 544 amino acids after deletion of 47 amino acids on the C-terminal); 6xHis (C); made in house; host or cells: Escherichia coli
# How it was run: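 His-tagged, C-terminally truncated NS5B (BK strain, 1b; 0.5 μg/ml) incubated with compound 60 min at 25 °C on 3′UTR-derived substrate RNA (5 μg/ml), 50 μM ATP/GTP/CTP, 2 μM UTP plus [3H]UTP, pH 7.5. Acid-precipitated RNA counted; IC50 from radioactivity with and without compound.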
smiles,measurement,setting,value
"CCC(F)(F)c1ccc(CNC(=O)[C@H]2CN(c3ccc4nccnc4n3)CCN2S(=O)(=O)c2ccc(OC(F)(F)F)cc2)cc1 [Example 748, (R)-4-pyrido[2,3-b]pyrazin-6-yl-1-(4-trifluoromethoxy-benzenesulfonyl)-piperazine-2-carboxylic acid 4-(1,1-difluoro-propyl)-benzylamide]",IC50,[1],< 0.1 µM
same,IC50,[2],< 0.1 µM
"O=C(NCc1ccc(OC(F)(F)F)cc1)[C@H]1CN(c2cnc3nccnc3n2)CCN1S(=O)(=O)c1ccc(OC(F)(F)F)cc1 [Example 749, (R)-4-pyrazino[2,3-b]pyrazin-2-yl-1-(4-trifluoromethoxy-benzenesulfonyl)-piperazine-2-carboxylic acid 4-trifluoromethoxy-benzylamide]",IC50,[1],< 0.1 µM
same,IC50,[2],< 0.1 µM
"O=C(NCc1ccc(OC(F)(F)F)cc1)[C@H]1CN(c2ccn3ncnc3n2)CCN1S(=O)(=O)c1ccc(OC(F)(F)F)cc1 [Example 750, (R)-4-[1,2,4]triazolo[1,5-a]pyrimidin-5-yl-1-(4-trifluoromethoxy-benzenesulfonyl)-piperazine-2-carboxylic acid 4-trifluoromethoxy-benzylamide]",IC50,[1],< 0.1 µM
same,IC50,[2],< 0.1 µM
"CCC(F)(F)c1ccc(CNC(=O)[C@H]2CN(c3cnc4cnccc4n3)CCN2S(=O)(=O)c2ccc(N3CCCC3=O)cc2)cc1 [Example 751, (R)-1-[4-(2-oxo-pyrrolidin-1-yl)-benzenesulfonyl]-4-pyrido[3,4-b]pyrazin-2-yl-piperazine-2-carboxylic acid 4-(1,1-difluoro-propyl)-benzylamide]",IC50,[1],< 0.1 µM
same,IC50,[2],< 0.1 µM
"O=C(NCc1ccc(OC(F)(F)F)cc1)[C@H]1CN(c2cnc3cnccc3n2)CCN1S(=O)(=O)c1ccc(Cl)cc1 [Example 752, (R)-1-(4-chloro-benzenesulfonyl)-4-pyrido[3,4-b]pyrazin-2-yl-piperazine-2-carboxylic acid 4-trifluoromethoxy-benzylamide]",IC50,[1],< 0.1 µM
same,IC50,[2],< 0.1 µM
"CCC(F)(F)c1ccc(CNC(=O)[C@H]2CN(c3cnc4cncnc4n3)CCN2S(=O)(=O)c2ccc(-c3cccc(C(=O)O)c3)cc2)cc1 [Example 753, 4′-{(R)-2-[4-(1,1-difluoro-propyl)-benzylcarbamoyl]-4-pteridin-7-yl-piperazine-1-sulfonyl}-biphenyl-3-carboxylic acid]",IC50,[1],< 0.1 µM
same,IC50,[2],< 0.1 µM
"O=C(NCc1ccc(OC(F)(F)F)cc1)[C@H]1CN(c2cnc3cnccc3n2)CCN1S(=O)(=O)c1ccc([N+](=O)[O-])cc1 [Example 754, (R)-1-(4-nitro-benzenesulfonyl)-4-pyrido[3,4-b]pyrazin-2-yl-piperazine-2-carboxylic acid 4-trifluoromethoxy-benzylamide]",IC50,[1],< 0.1 µM
same,IC50,[2],< 0.1 µM
"O=C(NCc1ccc(OC(F)(F)F)cc1)[C@H]1CN(c2cnc3cnccc3n2)CCN1S(=O)(=O)c1ccc(N2CCCC2)cc1 [Example 755, (R)-4-pyrido[3,4-b]pyrazin-2-yl-1-(4-pyrrolidin-1-yl-benzenesulfonyl)-piperazine-2-carboxylic acid 4-trifluoromethoxy-benzylamide]",IC50,[1],< 0.1 µM
same,IC50,[2],< 0.1 µM
"CCC(F)(F)c1ccc(CNC(=O)[C@H]2CN(c3nc4ccncc4[nH]3)CCN2S(=O)(=O)c2ccc(OC(F)(F)F)cc2)cc1 [Example 756, (R)-4-(3H-imidazo[4,5-c]pyridin-2-yl)-1-(4-trifluoromethoxy-benzenesulfonyl)-piperazine-2-carboxylic acid 4-(1,1-difluoro-propyl)-benzylamide]",IC50,[1],< 0.1 µM
same,IC50,[2],< 0.1 µM
"O=C(NCc1ccc(OC(F)(F)F)cc1)[C@H]1CN(c2cnc3cnccc3n2)CCN1S(=O)(=O)c1ccc(C(F)(F)F)cc1 [Example 757, (R)-4-pyrido[3,4-b]pyrazin-2-yl-1-(4-trifluoromethyl-benzenesulfonyl)-piperazine-2-carboxylic acid 4-trifluoromethoxy-benzylamide]",IC50,[1],< 0.1 µM
same,IC50,[2],< 0.1 µM
"CCC(F)(F)c1ccc(CNC(=O)[C@H]2CN(c3nc4ccccc4[nH]3)CCN2S(=O)(=O)c2ccc(OC(F)(F)F)cc2)cc1 [Example 758, (R)-4-(1H-benzimidazol-2-yl)-1-(4-trifluoromethoxy-benzenesulfonyl)-piperazine-2-carboxylic acid 4-(1,1-difluoro-propyl)-benzylamide]",IC50,[1],< 0.1 µM
same,IC50,[2],< 0.1 µM
"CCC(F)(F)c1ccc(CNC(=O)[C@H]2CN(c3cnc4cncnc4n3)CCN2S(=O)(=O)c2ccc(-c3nc(=O)o[nH]3)cc2)cc1 [Example 759, (R)-1-[4-(5-oxo-2,5-dihydro-[1,2,4]oxadiazol-3-yl)-benzenesulfonyl]-4-pteridin-7-yl-piperazine-2-carboxylic acid 4-(1,1-difluoro-propyl)-benzylamide]",IC50,[1],< 0.1 µM
same,IC50,[2],< 0.1 µM
"CCC(F)(F)c1ccc(CNC(=O)[C@H]2CN(c3cnc4cccnc4n3)CCN2S(=O)(=O)c2ccc(OC(F)(F)F)cc2)cc1 [Example 760, (R)-4-pyrido[2,3-b]pyrazin-3-yl-1-(4-trifluoromethoxy-benzenesulfonyl)-piperazine-2-carboxylic acid 4-(1,1-difluoro-propyl)-benzylamide]",IC50,[1],< 0.1 µM
same,IC50,[2],< 0.1 µM
"CCC(F)(F)c1ccc(CNC(=O)[C@H]2CN(c3cnc4ncccc4n3)CCN2S(=O)(=O)c2ccc(OC(F)(F)F)cc2)cc1 [Example 761, (R)-4-pyrido[2,3-b]pyrazin-2-yl-1-(4-trifluoromethoxy-benzenesulfonyl)-piperazine-2-carboxylic acid 4-(1,1-difluoro-propyl)-benzylamide]",IC50,[1],< 0.1 µM
same,IC50,[2],< 0.1 µM
"O=C(NCc1ccc(OC(F)(F)F)cc1)[C@H]1CN(c2ccc3nccnc3n2)CCN1S(=O)(=O)c1ccc(OC(F)(F)F)cc1 [Example 762, (R)-4-pyrido[2,3-b]pyrazin-6-yl-1-(4-trifluoromethoxy-benzenesulfonyl)-piperazine-2-carboxylic acid 4-trifluoromethoxy-benzylamide]",IC50,[1],< 0.1 µM
same,IC50,[2],< 0.1 µM
"O=C(NCc1ccc(OCC(F)(F)F)cc1)[C@H]1CN(c2cnc3cncnc3n2)CCN1S(=O)(=O)c1ccc(OC(F)(F)F)cc1 [Example 763, (R)-4-pteridin-7-yl-1-(4-trifluoromethoxy-benzenesulfonyl)-piperazine-2-carboxylic acid 4-(2,2,2-trifluoro-ethoxy)-benzylamide]",IC50,[1],< 0.1 µM
same,IC50,[2],< 0.1 µM
"CCOC(=O)CN(C)c1ccc(S(=O)(=O)N2CCN(c3cnc4cnccc4n3)C[C@@H]2C(=O)NCc2ccc(OC(F)(F)F)cc2)cc1 [Example 764, (methyl-{4-[(R)-4-pyrido[3,4-b]pyrazin-2-yl-2-(4-trifluoromethoxy-benzylcarbamoyl)-piperazine-1-sulfonyl]-phenyl}-amino)-acetic acid ethyl ester]",IC50,[1],< 0.1 µM
same,IC50,[2],< 0.1 µM
"CN(CC(=O)O)c1ccc(S(=O)(=O)N2CCN(c3cnc4cnccc4n3)C[C@@H]2C(=O)NCc2ccc(OC(F)(F)F)cc2)cc1 [Example 765, (methyl-{4-[(R)-4-pyrido[3,4-b]pyrazin-2-yl-2-(4-trifluoromethoxy-benzylcarbamoyl)-piperazine-1-sulfonyl]-phenyl}-amino)-acetic acid]",IC50,[1],< 0.1 µM
same,IC50,[2],< 0.1 µM
